Activity calls are given as the source filed them. The calls are words filed in the database; no cut-off is given here.

Data set [1] can be described thus: Antiproliferative activity against human HepG2 cells after 48 hrs by MTT assay. The format is functional, cell-based. The conditions noted are these: HepG2, 48 h. In general terms: Tetrazolium assays rely on reduction of a dye to a coloured formazan, in cell work by metabolically active cells.
Data set [2] in a line: Antiproliferative activity against human K562 cells after 48 hrs by MTT assay. Type of data set: functional, cell-based. The conditions noted are these: K562, 48 h.
Data set [3] concerns K562. The data set can be described thus: Induction of apoptosis in human K562 cells assessed as decrease in Bcl2 mRNA expression at antiproliferative IC50 by RT-PCR method. Type of data set: functional, cell-based.
Data set [4] in a line: Cytotoxicity against human WI38 cells assessed as reduction in cell viability after 48 hrs by MTT assay. Type of data set: toxicity, cell-based, WI-38.
The subject of data set [5] is K562. Description: Induction of apoptosis in human K562 cells assessed as increase in Bax mRNA expression at antiproliferative IC50 by RT-PCR method. The format is functional, cell-based.
For data set [6], the system named is K562. The data set can be described thus: Induction of apoptosis in human K562 cells assessed as increase in caspase-3 protein expression at 0.93 uM after 24 hrs by ELISA. The format is functional, cell-based. For orientation: An ELISA detects its analyte on a solid surface through an enzyme-linked reagent.
The subject of data set [7] is K562. The data set can be described thus: Induction of apoptosis in human K562 cells assessed as increase in caspase-9 protein expression at 0.93 uM after 24 hrs by ELISA. Type of data set: functional, cell-based.
In data set [8] the test system is K562. The data set can be described thus: Induction of apoptosis in human K562 cells assessed as increase in caspase-9 protein expression at 1.24 uM after 24 hrs by ELISA. The format is functional, cell-based.
In data set [9] the test system is K562. The data set can be described thus: Induction of apoptosis in human K562 cells assessed as increase in caspase-3 protein expression at 1.24 uM after 24 hrs by ELISA. The format is functional, cell-based.
The subject of data set [10] is K562. The data set can be described thus: Induction of apoptosis in human K562 cells assessed as increase in caspase-9 protein expression at 0.49 uM after 24 hrs by ELISA. Type of data set: functional, cell-based.
Data set [11] in a line: Cell cycle arrest in human K562 cells assessed as accumulation at S phase at 0.49 uM after 24 hrs by propidium iodide staining based flow cytometry (reference value: 21.7%). Type of data set: functional.
Data set [12] deals with K562. The data set can be described thus: Induction of apoptosis in human K562 cells assessed as increase in caspase-3 protein expression at 0.49 uM after 24 hrs by ELISA. Type of data set: functional, cell-based.
A short description of data set [13]: Cell cycle arrest in human K562 cells assessed as accumulation at G2 phase at 0.49 uM after 24 hrs by propidium iodide staining based flow cytometry (reference value: 9.3%). Type of data set: functional. On the technique in general: A flow cytometer gives signals particle by particle.
A short description of data set [14]: Cell cycle arrest in human K562 cells assessed as accumulation at G1 phase at 0.49 uM after 24 hrs by propidium iodide staining based flow cytometry (reference value: 68.2%). Type of data set: functional.
For data set [15], the system named is K562. The data set can be described thus: Induction of apoptosis in human K562 cells at 0.49 uM after 24 hrs by propidium iodide staining based flow cytometry (reference value: 0.8%). The format is functional.
The subject of data set [16] is K562. The data set can be described thus: Induction of apoptosis in human K562 cells assessed as increase in caspase-9 protein expression at 1.21 uM after 24 hrs by ELISA. The format is functional, cell-based.
For data set [17], the system named is K562. The data set can be described thus: Induction of apoptosis in human K562 cells assessed as increase in caspase-3 protein expression at 1.21 uM after 24 hrs by ELISA. Type of data set: functional, cell-based.
Data set [18] relates to HepG2. Description: Induction of apoptosis in human HepG2 cells assessed as decrease in Bcl2 mRNA expression at antiproliferative IC50 by RT-PCR method. Type of data set: functional, cell-based.
The subject of data set [19] is HepG2. Description: Induction of apoptosis in human HepG2 cells assessed as increase in caspase-9 protein expression at 0.77 uM after 24 hrs by ELISA. The format is functional, cell-based.
Data set [20] concerns HepG2. Description: Induction of apoptosis in human HepG2 cells assessed as increase in Bax mRNA expression at antiproliferative IC50 by RT-PCR method. The format is functional, cell-based.
Data set [21] has as its system HepG2. Description: Induction of apoptosis in human HepG2 cells assessed as increase in caspase-3 protein expression at 0.77 uM after 24 hrs by ELISA. The format is functional, cell-based.
In data set [22] the test system is HepG2. The data set can be described thus: Induction of apoptosis in human HepG2 cells assessed as increase in caspase-3 protein expression at 0.65 uM after 24 hrs by ELISA. The format is functional, cell-based.
Data set [23] is described as follows: Cell cycle arrest in human HepG2 cells assessed as accumulation at G2 phase at 0.65 uM after 24 hrs by propidium iodide staining based flow cytometry (reference value: 7.2%). Type of data set: functional.
Data set [24] relates to HepG2. The data set can be described thus: Induction of apoptosis in human HepG2 cells assessed as increase in caspase-9 protein expression at 0.65 uM after 24 hrs by ELISA. Type of data set: functional, cell-based.
The nature of data set [25]: Cell cycle arrest in human HepG2 cells assessed as accumulation at S phase at 0.65 uM after 24 hrs by propidium iodide staining based flow cytometry (reference value: 25.2%). The format is functional.
A short description of data set [26]: Cell cycle arrest in human HepG2 cells assessed as accumulation at G1 phase at 0.65 uM after 24 hrs by propidium iodide staining based flow cytometry (reference value: 66.4%). Type of data set: functional.
Data set [27] concerns HepG2. The data set can be described thus: Induction of apoptosis in human HepG2 cells at 0.65 uM after 24 hrs by propidium iodide staining based flow cytometry (reference value: 1.2%). The format is functional.

`COc1ccc(C[C@@H](O)c2cc(OC)c(OC)c(OC)c2)cc1O` [COMBRETASTATIN]: the IC50 (in general, the concentration that inhibits the measured activity by half) came out at 3.4 µM in data set [1] and 3.46 µM in data set [2].
As for `COc1ccc(/C=C/C(=O)c2cc3cccc(OC)c3oc2=O)cc1OC`, the result in data set [3], in data set [5], in [6] and in data set [7] was Active. In addition, the IC50 at 48 h in data set [4] stood at 33.1 µM. Further, the IC50 turned out to be 0.82 µM in [1] and 0.93 µM in data set [2].
For `COc1ccc(/C=C(\C#N)C(=O)N/N=C(\C)c2cc3cccc(OC)c3oc2=O)cc1OC`, the 50% inhibitory concentration (IC50) at 48 h in data set [4] stood at 3.3 µM. Further, the IC50 was determined as 0.93 µM in data set [1] and 8.71 µM in [2].
As for `COc1cc(/C=C/C(=O)c2cc3cccc(OC)c3oc2=O)cc(OC)c1OC`, the IC50 at 48 h in data set [4] was determined as 9.55 µM. In addition, the concentration for half-maximal inhibition (IC50) stood at 2.02 µM in [1] and 1.36 µM in [2].
With `COc1cccc2cc(-c3ccc(C(C)=O)c(C)n3)c(=O)oc12`, the IC50 at 48 h in data set [4] came to 354 µM. Besides, the concentration for half-maximal inhibition (IC50) was found to be 9.1 µM in data set [1] and 1.24 µM in [2]. For the same molecule, the result in [8] and in data set [9] was Active.
Take `COc1cc(/C=C(\C#N)C(=O)N/N=C(\C)c2cc3cccc(OC)c3oc2=O)cc(OC)c1OC`: the result in data set [10], in data set [3], in data set [12] and in data set [5] was Active. The IC50 at 48 h in [4] stood at 11.1 µM. Moreover, the results for the 50% inhibitory concentration (IC50) in data set [1] and in data set [2] were 1.57 µM and 0.49 µM, respectively. Further, the Activity is 30.2% in data set [11], 15.5% in [13], 44.6% in data set [14] and 9.7% in data set [15].
Consider `COc1ccc(-c2cc(-c3cc4cccc(OC)c4oc3=O)nc(C#N)c2N)cc1OC`, for which the 50% inhibitory concentration (IC50) at 48 h in data set [4] is 36.1 µM. Further, the IC50 in data set [1] was found to be 3.2 µM; in data set [2], 1.61 µM.
Regarding `COc1cccc2c1C(=O)c1c(O)c3c(c(O)c1C2=O)C[C@@](O)(C(=O)CO)C[C@@H]3O[C@H]1C[C@H](N)[C@H](O)[C@H](C)O1` [DOXORUBICIN], the results for the 50% inhibitory concentration (IC50) in [1] and in data set [2] were 4.93 µM and 2.96 µM, respectively.
Take `COc1ccc(-c2cc(-c3cc4cccc(OC)c4oc3=O)nc(C#N)c2N)cc1`: in [4], the IC50 at 48 h is 8.66 µM. For the same molecule, the IC50 in data set [1] was found to be 1.25 µM; in data set [2] it was 1.21 µM. Also, the outcome in data set [16] and in data set [17] was Active.
In the case of `COc1ccc(/C=C(\C#N)C(=O)N/N=C(\C)c2cc3cccc(OC)c3oc2=O)cc1`, the IC50 at 48 h in [4] amounted to 48.4 µM. In addition, the outcome in data set [18], in [19], in data set [20] and in [21] was Active. The IC50 worked out at 0.77 µM in data set [1] and 3.96 µM in [2].
Consider `COc1ccc(/C=C/C(=O)c2cc3cccc(OC)c3oc2=O)cc1`, for which, in data set [4], the IC50 at 48 h was 293 µM. For the same molecule, the result in [18], in data set [22], in data set [24] and in data set [20] was Active. The Activity in data set [23] worked out at 19.1%; in data set [25], 28.8%; in data set [26], 35.8%; in [27], 16.3%. Also, the values for the half-inhibitory concentration (IC50) in data set [1] and in [2] were 0.65 µM and 1.09 µM, respectively.
Regarding `CCOC(=O)c1ccc(-c2cc3cccc(OC)c3oc2=O)nc1C`, the 50% inhibitory concentration (IC50) at 48 h in [4] came to 67.7 µM. Further, the 50% inhibitory concentration (IC50) in data set [1] was 4.92 µM; in [2] it was 8.82 µM.

For the origin of these results see ChEMBL document CHEMBL3875211, “Design and synthesis of new coumarin hybrids and insight into their mode of antiproliferative action” (Bioorg Med Chem, 2017).
